From ChEMBL document CHEMBL1152598, “Synthesis and dopaminergic activity of some E-3-(piperidin-1-yl)-1-(4-substituted phenyl)prop-2-en-1-one derivatives” (2009) come the findings set out here.

The source made the active and inactive calls. No cut-off for these calls is given here.

The test system of the first assay is Rattus norvegicus. As to the kind of experiment: Dopaminergic activity in apomorphine-induced Wistar rat assessed as licking count at 0.5 mg/kg, iv treated 15 mins before apomorphine challenge measured after 10 mins for 60 mins by behavioral study.
Conditions: not given
Format: functional.
Take `O=C(CCCN1CCC(O)(c2ccc(Cl)cc2)CC1)c1ccc(F)cc1` [HALOPERIDOL]: the Activity was 3.667.

Another assay deals with Rattus norvegicus. Briefly: Dopaminergic activity in apomorphine-induced Wistar rat assessed as licking count at 30 mg/kg, ip treated 15 mins before apomorphine challenge measured after 10 mins for 60 mins by behavioral study. Conditions: route intraperitoneal.
On to `O=C(/C=C/N1CCC(Cc2ccccc2)CC1)c1ccc(O)cc1O`, for which the Activity is 618.

Consider `O=C(/C=C/N1CCC(O)(c2ccc(O)cc2)CC1)c1ccc(O)cc1O`, for which the Activity came to 1450.

For the compound `COc1ccc(C(=O)/C=C/N2CCC(O)(c3ccc(Cl)cc3)CC2)c(O)c1`, the Activity was 1575.

On to `COc1ccc(C(=O)/C=C/N2CCC(c3ccc(O)cc3)CC2)c(O)c1`, for which the Activity amounted to 1325.

Consider `COc1ccc(C(=O)/C=C/N2CCC(O)(c3ccc(O)cc3)CC2)c(O)c1`, for which the Activity worked out at 2675.

Consider `O=C(/C=C/N1CCC(O)(c2ccc(Br)cc2)CC1)c1ccc(O)cc1O`, for which the Activity turned out to be 1860.

On to `COc1ccc(C(=O)/C=C/N2CCC(O)(c3ccccc3)CC2)c(O)c1`, for which the Activity is 1800.

With `O=C(/C=C/N1CCC(O)(c2ccccc2)CC1)c1ccc(O)cc1O`, the Activity is recorded as 1317.

For the compound `O=C(/C=C/N1CCC(c2ccc(O)cc2)CC1)c1ccc(O)cc1O`, the Activity was found to be 664.

Consider `COc1ccc(C(=O)/C=C/N2CCC(Cc3ccccc3)CC2)c(O)c1`, for which the Activity turned out to be 520.

As to `COc1ccc(C(=O)/C=C/N2CCC(O)(c3ccc(Br)cc3)CC2)c(O)c1`, the Activity is on record as 1140.

On to `O=C(/C=C/N1CCC(O)(c2ccc(Cl)cc2)CC1)c1ccc(O)cc1O`, for which the Activity is on record as 115.

The subject of a further assay is Rattus norvegicus. As to the kind of experiment: Effect on dopaminergic activity in apomorphine-induced Wistar rat assessed as licking count at 10 to 30 mg/kg, ip treated 15 mins before apomorphine challenge measured after 10 mins for 60 mins by behavioral study.
Conditions: not given
Take `O=C(/C=C/N1CCC(O)(c2ccc(Cl)cc2)CC1)c1ccc(O)cc1O`: the outcome was Active.
